Legend:
Assay in all cases: relative viability (nuclei count vs DMSO), 5 days (fraction); higher = more cells survive
NCI-H1975 = tested on: NCI-H1975
Method in brief: (§1)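 Medians of duplicate plates are given as relative viability. That measure is the nuclei count in treated wells divided by the count in vehicle wells. Counts were taken on 4× images of lung cancer cell lines in 1536-well plates, 5 days after pin-tool dosing the day after seeding with one drug alone or a fixed anchor-drug dose plus five library-drug doses (not always all listed) in √10 steps.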

LCLC-103H = tested on: LCLC-103H
Method in brief: as §1

NCI-H727 = tested on: NCI-H727
Method in brief: as §1

UMC-11 = tested on: UMC-11
Method in brief: as §1

EPLC-272H = tested on: EPLC-272H
Method in brief: as §1

NCI-H1437 = tested on: NCI-H1437
Method in brief: as §1

NCI-H358 = tested on: NCI-H358
Method in brief: as §1

HCC-366 = tested on: HCC-366
Method in brief: as §1

NCI-H1944 = tested on: NCI-H1944
Method in brief: as §1

NCI-H2023 = tested on: NCI-H2023
Method in brief: as §1

HARA = tested on: HARA
Method in brief: as §1

HCC-78 = tested on: HCC-78
Method in brief: as §1

NCI-H2405 = tested on: NCI-H2405
Method in brief: as §1

NCI-H1395 = tested on: NCI-H1395
Method in brief: as §1

HCC-827 = tested on: HCC-827
Method in brief: as §1

COR-L23 = tested on: COR-L23
Method in brief: as §1

COR-L 105 = tested on: COR-L 105
Method in brief: as §1

NCI-H2085 = tested on: NCI-H2085
Method in brief: as §1

SK-LU-1 = tested on: SK-LU-1
Method in brief: as §1

NCI-H661 = tested on: NCI-H661
Method in brief: as §1

HCC-15 = tested on: HCC-15
Method in brief: as §1

Cc1cnc(-c2cnc(NCCNc3ccc(C#N)cn3)nc2-c2ccc(Cl)cc2Cl)[nH]1 + COc1cc2c(Oc3ccc(NC(=O)C4(C(=O)Nc5ccc(F)cc5)CC4)cc3F)ccnc2cc1OCCCN1CCOCC1 [Foretinib] (partner 0.25 µM)
relative viability (NCI-H1975; first compound 0.08 µM): 0.928
relative viability (NCI-H1975; first compound 0.253 µM): 0.911
relative viability (NCI-H1975; first compound 0.8 µM): 0.771
relative viability (NCI-H1975; first compound 2.53 µM): 0.573
relative viability (LCLC-103H; first compound 0.08 µM): 0.751
relative viability (LCLC-103H; first compound 0.253 µM): 0.734
relative viability (LCLC-103H; first compound 0.8 µM): 0.745
relative viability (LCLC-103H; first compound 2.53 µM): 0.79
relative viability (NCI-H727; first compound 0.08 µM): 0.943
relative viability (NCI-H727; first compound 0.253 µM): 0.918
relative viability (NCI-H727; first compound 0.8 µM): 0.732
relative viability (NCI-H727; first compound 2.53 µM): 0.898
relative viability (UMC-11; first compound 0.08 µM): 0.986
relative viability (UMC-11; first compound 0.253 µM): 0.999
relative viability (UMC-11; first compound 0.8 µM): 1.11
relative viability (UMC-11; first compound 2.53 µM): 1
relative viability (EPLC-272H; first compound 0.08 µM): 0.737
relative viability (EPLC-272H; first compound 0.253 µM): 0.617
relative viability (EPLC-272H; first compound 0.8 µM): 0.692
relative viability (EPLC-272H; first compound 2.53 µM): 0.747
relative viability (NCI-H1437; first compound 0.08 µM): 1.18
relative viability (NCI-H1437; first compound 0.253 µM): 1.25
relative viability (NCI-H1437; first compound 0.8 µM): 1.24
relative viability (NCI-H1437; first compound 2.53 µM): 1.25
relative viability (NCI-H358; first compound 0.08 µM): 0.735
relative viability (NCI-H358; first compound 0.253 µM): 0.597
relative viability (NCI-H358; first compound 0.8 µM): 0.404
relative viability (NCI-H358; first compound 2.53 µM): 0.509
relative viability (HCC-366; first compound 0.08 µM): 1.01
relative viability (HCC-366; first compound 0.253 µM): 0.964
relative viability (HCC-366; first compound 0.8 µM): 0.892
relative viability (HCC-366; first compound 2.53 µM): 0.922
relative viability (NCI-H1944; first compound 0.08 µM): 0.885
relative viability (NCI-H1944; first compound 0.8 µM): 0.902
relative viability (NCI-H1944; first compound 2.53 µM): 0.91
relative viability (NCI-H2023; first compound 0.08 µM): 0.709
relative viability (NCI-H2023; first compound 0.8 µM): 0.938
relative viability (NCI-H2023; first compound 2.53 µM): 1.18
relative viability (HARA; first compound 0.08 µM): 1
relative viability (HARA; first compound 0.253 µM): 0.773
relative viability (HARA; first compound 0.8 µM): 0.818
relative viability (HARA; first compound 2.53 µM): 0.877
relative viability (HCC-78; first compound 0.08 µM): 0.471
relative viability (HCC-78; first compound 0.253 µM): 0.488
relative viability (HCC-78; first compound 0.8 µM): 0.525
relative viability (HCC-78; first compound 2.53 µM): 0.568
relative viability (NCI-H2405; first compound 0.08 µM): 1.04
relative viability (NCI-H2405; first compound 0.253 µM): 0.974
relative viability (NCI-H2405; first compound 0.8 µM): 1.05
relative viability (NCI-H2405; first compound 2.53 µM): 0.845
relative viability (NCI-H1395; first compound 0.08 µM): 1.03
relative viability (NCI-H1395; first compound 0.253 µM): 0.953
relative viability (NCI-H1395; first compound 0.8 µM): 1.02
relative viability (NCI-H1395; first compound 2.53 µM): 0.956
relative viability (HCC-827; first compound 0.08 µM): 1.04
relative viability (HCC-827; first compound 0.8 µM): 0.983
relative viability (HCC-827; first compound 2.53 µM): 0.976
relative viability (COR-L23; first compound 0.08 µM): 0.853
relative viability (COR-L23; first compound 0.253 µM): 0.877
relative viability (COR-L23; first compound 0.8 µM): 1.08
relative viability (COR-L23; first compound 2.53 µM): 0.951
relative viability (COR-L 105; first compound 0.08 µM): 0.906
relative viability (COR-L 105; first compound 0.253 µM): 1.03
relative viability (COR-L 105; first compound 0.8 µM): 0.943
relative viability (COR-L 105; first compound 2.53 µM): 0.868
relative viability (NCI-H2085; first compound 0.08 µM): 0.989
relative viability (NCI-H2085; first compound 0.253 µM): 0.88
relative viability (NCI-H2085; first compound 0.8 µM): 0.762
relative viability (NCI-H2085; first compound 2.53 µM): 0.937
relative viability (SK-LU-1; first compound 0.08 µM): 0.865
relative viability (SK-LU-1; first compound 0.253 µM): 0.833
relative viability (SK-LU-1; first compound 0.8 µM): 0.983
relative viability (SK-LU-1; first compound 2.53 µM): 1.03
relative viability (NCI-H661; first compound 0.08 µM): 1.05
relative viability (NCI-H661; first compound 0.253 µM): 0.99
relative viability (NCI-H661; first compound 0.8 µM): 1.01
relative viability (NCI-H661; first compound 2.53 µM): 0.894
relative viability (HCC-15; first compound 0.08 µM): 1.12
relative viability (HCC-15; first compound 0.253 µM): 0.895
relative viability (HCC-15; first compound 0.8 µM): 1.02
relative viability (HCC-15; first compound 2.53 µM): 0.941
